The values that follow come from ChEMBL document CHEMBL3045990, “Inhibition of Cathepsin D protease activity by Punica granatum fruit peel extracts, isolates, and semisynthetic analogs” (Med Chem Res, 2013).

Assay [1] addresses T1, Cathepsin D (Homo sapiens, UniProt P07339). Put plainly: Inhibition of cathepsin D (unknown origin) using hemoglobin as substrate after 30 min by spectrophotometric analysis.
Another assay concerns MDA-MB-231. Put plainly: Cytotoxicity against Homo sapiens (human) MDA-MB-231 cells assessed as growth inhibition by MTT assay. Format: functional, cell-based. A general note: Tetrazolium dyes change colour on reduction, which living cells bring about.
For assay [2], the target named is T1, Cathepsin D. The assay is described as follows: Inhibition of cathepsin D (unknown origin) using hemoglobin as substrate at 20 ug/mL after 30 min by spectrophotometric analysis.

pIC50: −log10 of the molar value. Converted amounts (≈) assume the structure as drawn. The source made the active and inactive calls. The rule behind the calls is not given here. Bounds are passed on as bounds.

T1 sequence (P07339 65-162 limits assumed): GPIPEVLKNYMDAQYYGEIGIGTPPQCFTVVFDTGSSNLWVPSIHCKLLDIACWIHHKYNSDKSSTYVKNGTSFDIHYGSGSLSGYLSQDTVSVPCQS
T1 sequence (P07339 169-412 limits assumed): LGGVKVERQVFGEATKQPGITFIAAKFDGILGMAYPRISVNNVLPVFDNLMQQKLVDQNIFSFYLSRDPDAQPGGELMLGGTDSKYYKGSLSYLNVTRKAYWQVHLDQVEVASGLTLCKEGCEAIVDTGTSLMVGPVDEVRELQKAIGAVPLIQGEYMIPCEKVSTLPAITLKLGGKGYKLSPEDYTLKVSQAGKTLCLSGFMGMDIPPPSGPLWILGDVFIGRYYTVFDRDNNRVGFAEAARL

As a reminder, the pIC50 is the negative decadic logarithm of the IC50, by convention in mol/L. For `C[C@H]1[C@H](C)CC[C@]2(C(=O)O)CC[C@]3(C)C(=CC[C@@H]4[C@@]5(C)CCC(=O)C(C)(C)[C@@H]5CC[C@]43C)[C@H]12` [URSONIC ACID], the pIC50 against Cathepsin D [1] is 4.85. The “growth inhibition (GI)” value in the assay with MDA-MB-231 was less than 5%. At Cathepsin D [1], `CC[C@H](CC[C@@H](C)[C@H]1CC[C@H]2[C@@H]3CC=C4CC(=O)CC[C@]4(C)[C@H]3CC[C@]12C)C(C)C` [BETA-SITOSTENONE] had a pIC50 of 5.03. As for `CC[C@H](CC[C@@H](C)[C@H]1CC[C@H]2[C@@H]3CC=C4C[C@@H](OC(C)=O)CC[C@]4(C)[C@H]3CC[C@]12C)C(C)C`, on Cathepsin D [2], the inhibition result was “inactive”.

What is called IC50 is the midpoint of a concentration-inhibition curve. As for `O=C(/C=C/C=C/c1ccc2c(c1)OCO2)N1CCCCC1` [PIPERINE], the pIC50 at Cathepsin D [1] was 4.37. In addition, in the assay with MDA-MB-231 (Homo sapiens, MDA-MB-231), the IC50 was found to be 58.4 mg/L (≈ 205 µM).

As to `CC[C@H](CC[C@@H](C)[C@H]1CC[C@H]2[C@@H]3CC=C4C[C@@H](O)CC[C@]4(C)[C@H]3CC[C@]12C)C(C)C`, the inhibition entry on Cathepsin D [2] is “inactive”. In turn, `C[C@H]1[C@H](C)CC[C@]2(C(=O)O)CC[C@]3(C)C(=CC[C@@H]4[C@@]5(C)CC[C@H](O)C(C)(C)[C@@H]5CC[C@]43C)[C@H]12` [URSOLIC ACID] gave a pIC50 against Cathepsin D [1] of 4.74. For the same compound, in the assay on MDA-MB-231, the “growth inhibition (GI)” value is given as less than 5%. `COC(=O)[C@]12CC[C@@H](C)[C@H](C)[C@H]1C1=CC[C@@H]3[C@@]4(C)CC[C@H](O)C(C)(C)[C@@H]4CC[C@@]3(C)[C@]1(C)CC2` [METHYL URSOLATE] had a pIC50 at Cathepsin D [1] of 5.02. The “growth inhibition (GI)” value with MDA-MB-231 is on record as less than 5%.

For the compound `CC(=O)O[C@H]1CC[C@]2(C)[C@H]3CC=C4[C@@H]5[C@@H](C)[C@H](C)CC[C@]5(C(=O)O)CC[C@@]4(C)[C@]3(C)CC[C@H]2C1(C)C`, the inhibition result on Cathepsin D [2] is “inactive”. On the same count and under the same terms, with `C[C@H]1[C@H](C)CC[C@]2(C(N)=O)CC[C@]3(C)C(=CC[C@@H]4[C@@]5(C)CC[C@H](O)C(C)(C)[C@@H]5CC[C@]43C)[C@H]12` the entry was “inactive”.
